Data on three molecules can be found in ChEMBL document CHEMBL3351614, “Discovery of 1a,2,5,5a-tetrahydro-1H-2,3-diaza-cyclopropa[a]pentalen-4-carboxamides as potent and selective CB2 receptor agonists” (Bioorg Med Chem Lett, 2015).

Broadly, the Cmax is the peak of the concentration-time curve. By AUC(0-t) is commonly meant the area under the concentration-time curve up to a stated or last time point. Read a low AUC(0-t) as less exposure. Broadly, the bioavailability is dose-corrected exposure relative to a reference, in per cent.

One data set relates to Rattus norvegicus. The experiment in a line: Toxicity in rat assessed as reduction in core temperature at 0.3 mg/kg, ip. It is filed as organism-based. The following applies: in vivo. Details: dose 0.3 mg/kg, route intraperitoneal.
Data set [1] is described as follows: Volume of distribution at steady state in Sprague-Dawley rat at 2 mg/kg, iv and 3 mg/kg, po. The following applies: in vivo, read-out: Vdss. It is filed as ADME, organism-based.
The nature of data set [2]: Cmax in Sprague-Dawley rat at 2 mg/kg, iv and 3 mg/kg, po. It is filed as ADME, organism-based. The following applies: in vivo.
Data set [3] can be described thus: AUClast in Sprague-Dawley rat at 2 mg/kg, iv and 3 mg/kg, po. It is filed as ADME, organism-based. Conditions: plasma.
A short description of data set [4]: Oral bioavailability in Sprague-Dawley rat at 3 mg/kg. The following applies: in vivo. It is filed as ADME, organism-based.
Data set [5] is described as follows: Ratio of drug level in brain to plasma in Sprague-Dawley rat at 3 mg/kg, po after 2 hrs. It is filed as ADME, organism-based. Set-up: dose 3 mg/kg, route oral. The following applies: read-out: BPR.
Data set [6] can be described thus: Drug uptake in Sprague-Dawley rat brain at 3 mg/kg, po after 2 hrs. The following applies: read-out: Drug uptake. Details: dose 3 mg/kg, route oral. It is filed as ADME, organism-based.
Data set [7] is described as follows: Cmax in Sprague-Dawley rat at 3 mg/kg, po after 0.4 hrs. It is filed as ADME, organism-based. Set-up: dose 3 mg/kg, route oral. Conditions: in vivo.

For the molecule `CCCCCCC(C)(C)c1ccc([C@@H]2C[C@H](O)CC[C@H]2CCCO)c(O)c1` [CP-55940], the T in the data set with Rattus norvegicus is more than 2 °C.
On to `CC(C)(CO)NC(=O)c1nn(-c2ccc(F)cc2F)c2c1C[C@H]1C[C@@H]21`, for which, in data set [1], the Vd came out at 0.851 L/kg. Moreover, the Cmax in data set [2] worked out at 808 ng/mL. Moreover, the AUC(0-t) in data set [3] was found to be 4480 ng·h/mL. Also, the bioavailability in data set [4] was determined as 35.9%. In addition, the Kp at 2 h in data set [5] was determined as 0.356. Further, the concentration at 2 h in data set [6] was 623 ng/g.
As for `CC(C)(NC(=O)c1nn(C(C)(C)C)c2c1C[C@H]1C[C@@H]21)c1ccccc1`, the Cmax in data set [7] stood at 33 ng/mL.
